From patent US20090124650A1 (priority 2007, published 2009)

Key:
[1] = Study 5: controlled release 40 mg vs immediate release 4x10 mg, fed and fasting; assay type: in vivo, human; settings: food effect
Source text: Subjects randomized to Treatment 5A and Treatment 5C, as described below, were in a fasted state following a 10-hour overnight fast. […] There was a 14-day washout interval between the four dose administrations. The subjects were confined to the clinic during each study period. Subject assigned to receive Treatment 5A and Treatment 5B were discharged from the clinic on Day 3 following the 48-hour procedures, and subjects assigned to receive Treatment 5C and Treatment 5D were discharged from the clinic on Day 2 following the 36-hour procedures. On Day 1 of each study period the subjects received one of four treatments:
Blood samples (7 ml) were collected during each study period at the 0 hour (predose), and at 0.25, 0.5, 0.75, 1.0, 1.5, 2, 3, 4, 5, 6, 8, 10, 12, 24, 36, 48, 60, and 72 hours post-dose (19 samples) for subjects randomized to all Treatments.

[2] = Bioavailability in elderly, hepatically and renally impaired patients
[3] = in vivo; cited from earlier work
[4] = In vivo ethanol study: oxymorphone 40 mg ER tablets with 240 mL of 40%, 20%, 4%, 0% ethanol; parameters: species or system human
Experimental: The study design was a randomized, open-label, single-dose, four-period crossover in 28 subjects. […] Subjects were fasted overnight for at least 8 hours prior to dosing. Water was allowed ad lib except from 1 hour before dosing until 1 hour after dosing. A standardized meal was served 4 hours and 10 hours after dosing.
A) 40% ethanol B) 20% ethanol C) 4% ethanol D) 0% ethanol
Serial blood samples were obtained from 0 to 48 hours after dosing. Plasma samples were assayed for oxymorphone. Pharmacokinetic parameters for oxymorphone were determined using non-compartmental methods. […] Any treatment in which a subject vomited during the dosing interval (0-12 hours) was excluded from the primary pharmacokinetic analysis.

[5] = elderly patients (65 years old or older)

CN1CC[C@]23c4c5ccc(O)c4O[C@H]2C(=O)CC[C@@]3(O)[C@H]1C5 [oxymorphone, 14-hydroxydihydromorphinone]
Cmax greater with a meal than without [1]: 50%
increase in Cmax [2, 5]: about 1.5 fold
increase in bioavailability [2, 5]: about 1.4 fold
bioavailability ([2]; hepatically impaired patients): increased
bioavailability ([2]; renally impaired patients): increased
oral bioavailability [3]: about 10%
AUC change with ethanol ([4]; 240 mL of 20% or 4% ethanol concomitantly): essentially unchanged
Cmax increase in individual subjects, up to ([4]; 240 mL of 40% ethanol): up to 270%
AUC change with ethanol ([4]; 240 mL of 40% ethanol concomitantly): not statistically significantly changed
Cmax increase (average) vs 0% ethanol ([4]; 240 mL of 40% ethanol, excluding subjects who vomited): 70%
